Source: patent publication US20230149554A1, “TARGETED DEGRADATION OF THE ONCOGENIC MICRORNA 17-92 CLUSTER BY STRUCTURE-TARGETING LIGANDS” (University of Florida Research Foundation, Incorporated, priority 2020, published 2023)
pKd: −log10 of the molar value.

Tests used:
plasmid DNA = details: 100 nM
Description: In vitro Bleomycin cleavage of DNA plasmid. […] Another equivalent of (NH4)2Fe(SO4)2.6H2O was added after 30 min and 60 min respectively. The mixture was loaded on 1% agarose with 6× loading dye and stained with ethidium bromide. Bands were quantified using ImageJ image analysis software.

[1] = target: bulges 5′G_U/3′CUA, 5′GGU/3′C_A and 5′GAU/3′C_A; details: previous study, cited from earlier work
Cellular uptake analysis = assay type: in vitro ADME, human; details: 5 μM, 24 h, DU-145 and MDA-MB-231
Description: Cellular uptake analysis. DU145 and MDA-MB-231 cells were seeded into a 96-well white clear bottom plate at 10,000 cells/well and allowed to adhere overnight. Once adhered, the cells were grown to ˜50% confluency and then treated with 2, 5, or 7 at 5 μM for 24 h while also leaving untreated wells for generation of a standard curve. This concentration was chosen to allow for adequate signal above noise. After 24 h, cells were lysed in 100 μL of RNA lysis buffer (Zymo Research) for 5 min. Compound 2, 5, or 7 were spiked into untreated samples at 100, 10, 1, 0.1, and 0.01 nM to create a standard curve of compound fluorescence. Using a Biotek FLX-800 fluorescence plate reader (excitation: 360/340; emission 460/440; sensitivity=90) the fluorescence of 2, 5, and 7 was measured. Concentrations were determined by extrapolating from the standard curves mentioned above.

pri-miR-17-92 cluster [2] = assay: RT-qPCR of pri-, pre- and mature miRNAs in MDA-MB-231 cells; assay type: cell-based, human
Description: Absolute quantification of pri-, pre-, and mature miRNAs. Transcripts of pre-miR-17, pre-miR-18a, and the corresponding 5p mature sequences were transcribed in vitro and purified as described above. Precursor miRNAs (1×10^14 copies) were reverse transcribed using QScript RT (Quanta bio) in a total volume of 40 μL. Mature miRNAs (1×10^14 copies) were reverse transcribed using the miScript II RT Kit (Qiagen) in a total volume of 40 μL reaction. Serial dilutions of the RT reactions (1:10) were used to create a standard curve of copy number versus Ct which was used to calculate copy numbers of each transcript in DU-145 and MDA-MB-231 cells.

pri-miR-17-92 cluster [3] = assay: RT-qPCR of pri-, pre- and mature miRNAs in DU-145 cells; assay type: cell-based, human; details: DU-145, treatment with 7
Description: RT-qPCR in DU145, MDA-MB-231, and WT-9-12 cells. DU145 cells were seeded into 12-well plates at ˜50% confluency (≈200,000 cells/well) and allowed to adhere for 12 h. After adhering, the cells were treated with compounds 2, 5, 6, or 7 (10, 100, and 500 nM) for 24 h. Total RNA was then harvested using a Zymo-Quick RNA Mini prep kit (Zymo Research) with DNase treatment according in the manufacturers protocol. Reverse transcription (RT) for mature miRNAs was done using the miScript II RT kit (Qiagen) with 200 ng of total RNA. To measure precursor and mRNA levels, RT was done using qScript (Quanta Bio) according to the manufacturers protocol on 1000 ng of total RNA. RT-qPCR was carried out on an Applied Biosystems 7900HT cycler under standard conditions (2 step PCR; 60° C. annealing/elongation, 95° C. melt) using the Power Sybr Master Mix (Applied Biosystems). […] Total RNA was extracted in a similar manner and subjected to RT-qPCR as described above. RT for precursor and mRNAs in MDA-MB-231 cells was done using the High Flex buffer in the miScript II RT kit.
Absolute quantification of pri-, pre-, and mature miRNAs. Transcripts of pre-miR-17, pre-miR-18a, and the corresponding 5p mature sequences were transcribed in vitro and purified as described above. Precursor miRNAs (1×10^14 copies) were reverse transcribed using QScript RT (Quanta bio) in a total volume of 40 μL. […]

Cc1c(N)nc([C@H](CC(N)=O)NC[C@H](N)C(N)=O)nc1C(=O)N[C@H](C(=O)N[C@H](C)[C@@H](O)[C@H](C)C(=O)N[C@H](C(=O)NCCc1nc(-c2nc(C(=O)NCCCNCCCCN)cs2)cs1)[C@@H](C)O)[C@@H](O[C@@H]1O[C@@H](CO)[C@@H](O)[C@H](O)[C@@H]1O[C@@H]1O[C@H](CO)[C@@H](O)[C@H](OC(N)=O)[C@@H]1O)c1cnc[nH]1 [Bleomycin A5]
cleavage of plasmid DNA (plasmid DNA): significantly cleaved DNA

CN1CCN(c2ccc(-c3ccc4nc(-c5cc(C(C)(C)C)c(OCCCC(=O)NCCCN=[N+]=[N-])c(C(C)(C)C)c5)[nH]c4c3)cc2)CC1 [Compound 1]
pKd ([1]; bulges of pre-miR-17, -18a, -20a, read-out: Kd's of 1 for the three bulges): 4.40 to 4.52
binding of 1 to RNAs with bulges mutated to GC or AU base pairs [1]: No binding was observed

CCCN(CC(=O)N(CCC)CC(=O)N(CCC)CC(=O)N(CC(=O)NCCOCCOCCOCCOc1ccc(/C=C2\SC(Nc3ccccc3)=C(C(=O)OCC)C2=O)cc1O)Cc1cn(CCCNC(=O)CCCOc2c(C(C)(C)C)cc(-c3nc4cc(-c5ccc(N6CCN(C)CC6)cc5)ccc4[nH]3)cc2C(C)(C)C)nn1)C(=O)CN(Cc1cn(CCCNC(=O)CCCOc2c(C(C)(C)C)cc(-c3nc4cc(-c5ccc(N6CCN(C)CC6)cc5)ccc4[nH]3)cc2C(C)(C)C)nn1)C(C)=O [Compound 7]
cellular uptake (Cellular uptake analysis): taken up to a similar extent as 2
decrease of pre-miR-17 levels (pri-miR-17-92 cluster [2]; MDA-MB-231, 7 at 500 nM): 31(±3) %
decrease of pre-miR-18a levels (pri-miR-17-92 cluster [2]; MDA-MB-231, 7 at 500 nM): 19(±4) %
decrease of pre-miR-20a levels (pri-miR-17-92 cluster [2]; MDA-MB-231, 7 at 500 nM): 36(±3) %
pri-miR-17/92 levels (pri-miR-17-92 cluster [2]; MDA-MB-231, 7 at 500 nM): unchanged
levels of mature miR-17, miR-18a and miR-20a (pri-miR-17-92 cluster [2]; MDA-MB-231, treatment with 7): reduced the levels of mature miR-17, miR-18a, and miR-20a dose dependently
levels of the other three mature miRNAs in the cluster (pri-miR-17-92 cluster [2]; MDA-MB-231, treatment with 7): no effect
mature and pre-miRNA levels of the pre-miRNAs that bind 2 (pri-miR-17-92 cluster [3]): reduced levels
pri-miR-17/92 levels (pri-miR-17-92 cluster [3]): No effect
